# Measurements taken from patent USRE38117E1, “Trioxane dimer compound having antiproliferative and antitumor activities” (Hauser, Inc., priority 1995, dated 2003).
# Experiments:
# Assay type in all cases: cell-based
# CCRF-CEM = experiment: NCI 60 cell line screen (SRB), Leukemia
# K-562 = experiment: NCI 60 cell line screen (SRB), Leukemia; conditions: K-562 (Leukemia)
# A549/ATCC = experiment: NCI 60 cell line screen (SRB), Non-Small Cell Lung Cancer
# HOP-62 = experiment: as above; conditions: HOP-62 (Non-Small Cell Lung Cancer)
# HOP-92 = experiment: as above; conditions: HOP-92 (Non-Small Cell Lung Cancer)
# NCI-H226 = experiment: as above
# NCI-H322M = experiment: as above
# NCI-H460 = experiment: as above
# HCC-2998 = experiment: NCI 60 cell line screen (SRB), Colon Cancer; conditions: HCC-2998 (Colon Cancer)
# HCT-15 = experiment: NCI 60 cell line screen (SRB), Colon Cancer; conditions: HCT-15 (Colon Cancer)
# HT29 = experiment: NCI 60 cell line screen (SRB), Colon Cancer
# SW-620 = experiment: NCI 60 cell line screen (SRB), Colon Cancer; conditions: SW-620 (Colon Cancer)
# SF-268 = experiment: NCI 60 cell line screen (SRB), CNS Cancer; conditions: SF-268 (CNS Cancer)
# SF-539 = experiment: NCI 60 cell line screen (SRB), CNS Cancer; conditions: SF-539 (CNS Cancer)
# SNB-19 = experiment: NCI 60 cell line screen (SRB), CNS Cancer; conditions: SNB-19 (CNS Cancer)
# MALME-3M = experiment: NCI 60 cell line screen (SRB), Melanoma; conditions: MALME-3M (Melanoma)
# M14 = experiment: NCI 60 cell line screen (SRB), Melanoma
# SK-MEL-2 = experiment: NCI 60 cell line screen (SRB), Melanoma; conditions: SK-MEL-2 (Melanoma)
# SK-MEL-28 = experiment: NCI 60 cell line screen (SRB), Melanoma; conditions: SK-MEL-28 (Melanoma)
# SK-MEL-5 = experiment: NCI 60 cell line screen (SRB), Melanoma; conditions: SK-MEL-5 (Melanoma)
# UACC-62 = experiment: NCI 60 cell line screen (SRB), Melanoma; conditions: UACC-62 (Melanoma)
# IGROVI = experiment: NCI 60 cell line screen (SRB), Ovarian Cancer
# OVCAR-3 = experiment: NCI 60 cell line screen (SRB), Ovarian Cancer; conditions: OVCAR-3 (Ovarian Cancer)
# OVCAR-4 = experiment: NCI 60 cell line screen (SRB), Ovarian Cancer; conditions: OVCAR-4 (Ovarian Cancer)
# OVCAR-8 = experiment: NCI 60 cell line screen (SRB), Ovarian Cancer; conditions: OVCAR-8 (Ovarian Cancer)
# 786-0 = experiment: NCI 60 cell line screen (SRB), Renal Cancer; conditions: 786-0 (Renal Cancer)
# A498 = experiment: NCI 60 cell line screen (SRB), Renal Cancer
# CAKI-1 = experiment: NCI 60 cell line screen (SRB), Renal Cancer; conditions: CAKI-1 (Renal Cancer)
# MCF7 = experiment: NCI 60 cell line screen (SRB), Breast Cancer
# MCF7/ADR-RES = experiment: NCI 60 cell line screen (SRB), Breast Cancer
# HS 578T = experiment: NCI 60 cell line screen (SRB), Breast Cancer; conditions: HS 578T (Breast Cancer)
# MDA-N = experiment: NCI 60 cell line screen (SRB), Breast Cancer
# 60 cell line panel = experiment: NCI 60 cell line screen, values over the whole panel; conditions: mean value over the cell line panel
structure (smiles),measurement,setting,value
"COC1OC2(C)CCC3CCCC(CCOC(=O)c4cccc(C(=O)OCCC5CCCC6CCC7(C)OOC56C(OC)O7)c4)C31OO2 (stereo not drawn) [Compound 10, Trioxane Bis-ester Dimer]",Log10GI50,CCRF-CEM,−7.15 M
same,Log10LC50,CCRF-CEM,>−4.30 M
same,Log10TGI,CCRF-CEM,−5.70 M
same,Log10GI50,K-562,−6.79 M
same,Log10LC50,K-562,>−4.30 M
same,Log10TGI,K-562,−5.35 M
same,Log10GI50,A549/ATCC,−5.89 M
same,Log10LC50,A549/ATCC,>−4.30 M
same,Log10TGI,A549/ATCC,>−4.30 M
same,Log10GI50,HOP-62,−5.11 M
same,Log10LC50,HOP-62,>−4.30 M
same,Log10TGI,HOP-62,>−4.30 M
same,Log10GI50,HOP-92,−6.01 M
same,Log10LC50,HOP-92,>−4.30 M
same,Log10TGI,HOP-92,−4.64 M
same,Log10GI50,NCI-H226,−5.64 M
same,Log10LC50,NCI-H226,>−4.30 M
same,Log10TGI,NCI-H226,>−4.30 M
same,Log10GI50,NCI-H322M,>−4.30 M
same,Log10LC50,NCI-H322M,>−4.30 M
same,Log10TGI,NCI-H322M,>−4.0 M
same,Log10GI50,NCI-H460,−5.76 M
same,Log10LC50,NCI-H460,>−4.30 M
same,Log10TGI,NCI-H460,>−4.30 M
same,Log10GI50,HCC-2998,−5.32 M
same,Log10LC50,HCC-2998,>−4.30 M
same,Log10TGI,HCC-2998,>−4.30 M
same,Log10GI50,HCT-15,−6.14 M
same,Log10LC50,HCT-15,>−4.30 M
same,Log10TGI,HCT-15,>−4.30 M
same,Log10GI50,HT29,−6.35 M
same,Log10LC50,HT29,>−4.30 M
same,Log10TGI,HT29,>−4.30 M
same,Log10GI50,SW-620,−6.47 M
same,Log10LC50,SW-620,>−4.30 M
same,Log10TGI,SW-620,>−4.30 M
same,Log10GI50,SF-268,−5.36 M
same,Log10LC50,SF-268,>−4.30 M
same,Log10TGI,SF-268,>−4.30 M
same,Log10GI50,SF-539,−6.11 M
same,Log10LC50,SF-539,>−4.30 M
same,Log10TGI,SF-539,>−4.30 M
same,Log10GI50,SNB-19,>−4.30 M
same,Log10LC50,SNB-19,>−4.30 M
same,Log10TGI,SNB-19,>−4.30 M
same,Log10GI50,MALME-3M,−5.56 M
same,Log10LC50,MALME-3M,>−4.30 M
same,Log10TGI,MALME-3M,>−4.30 M
same,Log10GI50,M14,−5.08 M
same,Log10LC50,M14,>−4.30 M
same,Log10TGI,M14,>−4.30 M
same,Log10GI50,SK-MEL-2,−5.47 M
same,Log10LC50,SK-MEL-2,>−4.30 M
same,Log10TGI,SK-MEL-2,>−4.30 M
same,Log10GI50,SK-MEL-28,−4.94 M
same,Log10LC50,SK-MEL-28,>−4.30 M
same,Log10TGI,SK-MEL-28,>−4.30 M
same,Log10GI50,SK-MEL-5,−5.57 M
same,Log10LC50,SK-MEL-5,>−4.30 M
same,Log10TGI,SK-MEL-5,>−4.30 M
same,Log10GI50,UACC-62,−5.68 M
same,Log10LC50,UACC-62,>−4.30 M
same,Log10TGI,UACC-62,>−4.30 M
same,Log10GI50,IGROVI,−5.34 M
same,Log10LC50,IGROVI,>−4.30 M
same,Log10TGI,IGROVI,−4.42 M
same,Log10GI50,OVCAR-3,−5.53 M
same,Log10LC50,OVCAR-3,>−4.30 M
same,Log10TGI,OVCAR-3,>−4.30 M
same,Log10GI50,OVCAR-4,>−4.0 M
same,Log10LC50,OVCAR-4,>−4.30 M
same,Log10TGI,OVCAR-4,>−4.30 M
same,Log10GI50,OVCAR-8,−6.13 M
same,Log10LC50,OVCAR-8,>−4.30 M
same,Log10TGI,OVCAR-8,>−4.30 M
same,Log10GI50,786-0,−5.57 M
same,Log10LC50,786-0,>−4.30 M
same,Log10TGI,786-0,>−4.30 M
same,Log10GI50,A498,>−4.30 M
same,Log10LC50,A498,>−4.30 M
same,Log10TGI,A498,>−4.30 M
same,Log10GI50,CAKI-1,−5.66 M
same,Log10LC50,CAKI-1,>−4.30 M
same,Log10TGI,CAKI-1,>−4.30 M
same,Log10GI50,MCF7,−5.92 M
same,Log10LC50,MCF7,>−4.30 M
same,Log10TGI,MCF7,>−4.30 M
same,Log10GI50,MCF7/ADR-RES,−5.36 M
same,Log10LC50,MCF7/ADR-RES,>−4.30 M
same,Log10TGI,MCF7/ADR-RES,>−4.0 M
same,Log10GI50,HS 578T,−6.07 M
same,Log10LC50,HS 578T,>−4.30 M
same,Log10TGI,HS 578T,>−4.30 M
same,Log10GI50,MDA-N,−5.97 M
same,Log10LC50,MDA-N,>−4.30 M
same,Log10TGI,MDA-N,>−4.30 M
same,Log10GI50 MG MID,60 cell line panel,−5.77 M
same,Log10LC50 MG MID,60 cell line panel,−4.30 M
same,Log10TGI MG MID,60 cell line panel,−4.52 M
